In article PMC9306950 (Clinical Pharmacology in Drug Development, 2022):
Read-outs that look alike come from different tables or passages of the source.

Assays:
[1] = Safety: treatment-emergent adverse events in study CL-0538; assay type: in vivo, healthy subjects
[2] = plasma
[3] = Safety: treatment-emergent adverse events in study CL-0537; assay type: in vivo, healthy subjects; conditions: for TEAE headache, subjects / TEAE nasopharyngitis, subjects: CL-0537
[4] = for CL/F lower in the presence of roxadustat: concomitant roxadustat vs statin alone; for increase of AUCinf / increase of Cmax: statin dosed concomitantly with roxadustat vs statin alone
clinical = conditions: human, in vivo; for AUC(0-inf): AUCinf
[5] = for AUC(0-inf) / Cmax / half-life / Tmax / AUC(0-t): human, in vivo; for AUC(0-inf): AUCinf; for AUC(0-t): AUClast
[6] = Safety: treatment-emergent adverse events in study CL-0541; assay type: in vivo, healthy subjects
[7] = atorvastatin 40 mg + roxadustat 200 mg, concomitant
[8] = statin + roxadustat 200 mg (steady state), concomitant, plasma
[9] = statin + roxadustat / statin alone
[10] = statin alone, single oral dose, plasma
[11] = po, mean (SD), statin alone, single oral dose, plasma
[12] = GLS mean for statin alone, statin alone
[13] = po, median (min-max), statin alone, single oral dose, plasma
[14] = 40 mg, mean (SD), simvastatin 40 mg alone, plasma
[15] = mean (SD), simvastatin administered 2 hours before roxadustat, plasma
[16] = mean (SD), simvastatin administered 4 hours after roxadustat, plasma
[17] = mean (SD), simvastatin administered 10 hours after roxadustat, plasma
[18] = median (min-max), simvastatin administered 2 hours before roxadustat, plasma
[19] = median (min-max), simvastatin administered 4 hours after roxadustat, plasma
[20] = median (min-max), simvastatin administered 10 hours after roxadustat, plasma
[21] = simvastatin administered 2 hours before roxadustat
[22] = simvastatin administered 4 hours after roxadustat
[23] = simvastatin administered 10 hours after roxadustat

For `CC(C)c1c(C(=O)Nc2ccccc2)c(-c2ccccc2)c(-c2ccc(F)cc2)n1CC[C@@H](O)C[C@@H](O)CC(=O)O` [Atorvastatin], the “TEAE dry mouth, subjects” value ([1]; CL-0538) was 0.0%, the “TEAE headache, subjects” value ([1]; CL-0538) was 4.2% and the “number of TEAEs considered possibly related to the study drug” value ([1]; investigator assessment) was 2. For the same compound, the “subjects with TEAEs considered possibly related to the study drug” value ([1]; investigator assessment) was 2 (8.3%) n (%), the “tlag, mean (SD)” value [2, 7] was 0 (0.0) h and the “tlag, median (min-max)” value [2, 7] was 0 (0–0) h. For the same compound, the “tlag, mean (SD)” value ([2]; atorvastatin 40 mg alone) was 0 (0.0) h and the “tlag, median (min-max)” value ([2]; atorvastatin 40 mg alone) was 0 (0–0) h.
For `CC(C)c1nc(N(C)S(C)(=O)=O)nc(-c2ccc(F)cc2)c1/C=C/[C@@H](O)C[C@@H](O)CC(=O)O` [Rosuvastatin], the “TEAE headache, subjects” value [3] was 0.0%, the “TEAE nasopharyngitis, subjects” value [3] was 0.0% and the “number of TEAEs considered related to the study drug” value ([3]; investigator assessment) was 2. For the same compound, the “subjects with TEAEs considered related to the study drug” value ([3]; investigator assessment) was 2 (7.1%) n (%), the “CL/F lower in the presence of roxadustat” value [4] was 66% and the “AUCinf, GLS mean for statin alone” value ([4]; human, in vivo) was 62 878 pg • h/mL. The “AUCinf, mean (SD)” value ([4]; human, in vivo) was 196 187 (95 367) pg • h/mL, the “AUCinf, median (min-max)” value ([4]; human, in vivo) was 177 873 (48 036–503 953) pg • h/mL and the “AUClast, mean (SD)” value ([4]; human, in vivo) was 192 156 (95 253) pg • h/mL. For the same compound, the “AUClast, median (min-max)” value ([4]; human, in vivo) was 173 565 (43 917–498 457) pg • h/mL, the “Cmax, mean (SD)” value ([4]; human, in vivo) was 22 980 (12 787) pg/mL and the “Cmax, median (min-max)” value ([4]; human, in vivo) was 19 811 (4059–58 463) pg/mL. The “tlag, mean (SD)” value ([4]; human, in vivo) was 0 (0.0) h, the “tlag, median (min-max)” value ([4]; human, in vivo) was 0 (0–0) h and the “AUCinf, mean (SD)” value ([4]; human, in vivo, po) was 67 613 (33 727) pg • h/mL. The “AUCinf, median (min-max)” value ([4]; human, in vivo, po) was 57 187 (21 336–165 242) pg • h/mL, the “AUClast, mean (SD)” value ([4]; human, in vivo, po) was 61 459 (34 796) pg • h/mL and the “AUClast, median (min-max)” value ([4]; human, in vivo, po) was 54 017 (0–159 223) pg • h/mL. The “Cmax, mean (SD)” value ([4]; human, in vivo, po) was 4939 (2991) pg/mL, the “Cmax, median (min-max)” value ([4]; human, in vivo, po) was 4062 (0–13 775) pg/mL and the “tlag, mean (SD)” value ([4]; human, in vivo, po) was 0 (0.0) h. For the same compound, the “tlag, median (min-max)” value ([4]; human, in vivo, po) was 0 (0–0) h, the “CL/F, mean (SD)” value [4, 8] was 63.4 (35.8) L/h and the “CL/F, median (min-max)” value [4, 8] was 56.22 (19.8–208) L/h. For the same compound, the “AUCinf, GLS mean ratio (%)” value [4, 9] was 292.55%, the “Cmax, GLS mean ratio (%)” value [4, 9] was 447.33% and the “CL/F, mean (SD)” value [4, 10] was 185.3 (91.3) L/h. The “CL/F, median (min-max)” value [4, 10] was 174.9 (60.5–469) L/h, the “tmax, median (min-max)” value [4, 10] was 4.00 (3.00–6.02) h and the “increase of AUCinf” value [4] was 2.93 fold. The “increase of Cmax” value [4] was 4.47 fold, the AUC(0-inf) (clinical; GLS mean for roxadustat + statin) was 184 ng·h/mL and the Cmax (clinical; GLS mean for statin alone) was 4.65 ng/mL. The half-life (clinical; po, t1/2, mean (SD), statin alone, single oral dose, plasma) was 15.5 h, the half-life (clinical; po, t1/2, median (min-max), statin alone, single oral dose, plasma) was 15.2 h and the Tmax (clinical; [11]) was 3.9 h.
With `CCC(C)(C)C(=O)O[C@H]1C[C@@H](C)C=C2C=C[C@H](C)[C@H](CC[C@@H](O)C[C@@H](O)CC(=O)O)[C@H]21` [Simvastatin acid] the “tlag, mean (SD)” value [4, 8] was 0.29 (0.35) h, the “tlag, median (min-max)” value [4, 8] was 0 (0–1.02) h and the “tlag, mean (SD)” value [4, 10] was 0.47 (0.31) h. For the same compound, the “tlag, median (min-max)” value [4, 10] was 0.50 (0–1.00) h, the “increase of AUCinf” value [4] was 1.85 fold and the “increase of Cmax” value [4] was 2.76 fold. For the same compound, the AUC(0-inf) (clinical; [12]) was 24.6 ng·h/mL, the Cmax (clinical; [12]) was 1.86 ng/mL and the Cmax (clinical; [11]) was 2.17 ng/mL. The Cmax (clinical; [13]) was 2.06 ng/mL, the half-life (clinical; po, t1/2, mean (SD)) was 6.28 h and the half-life (clinical; po, t1/2, median (min-max)) was 5.78 h. It also gave a Tmax (clinical; [11]) of 5.7 h, a Tmax (clinical; [13]) of 4.02 h and a half-life (clinical; t1/2, mean (SD)) of 5.98 h. For the same compound, the half-life (clinical; t1/2, median (min-max)) was 5.27 h, the AUC(0-inf) [5, 14] was 24.3 ng·h/mL and the AUC(0-inf) ([5]; 40 mg, median (min-max), simvastatin 40 mg alone, plasma) was 21.2 ng·h/mL. The Cmax [5, 14] was 2.12 ng/mL, the half-life ([5]; 40 mg, t1/2, mean (SD), simvastatin 40 mg alone, plasma) was 7 h and the half-life ([5]; 40 mg, t1/2, median (min-max), simvastatin 40 mg alone, plasma) was 6.36 h. The Tmax [5, 14] was 5.38 h, the AUC(0-inf) ([5]; GLS mean for simvastatin alone, simvastatin alone) was 21 ng·h/mL and the AUC(0-inf) [5, 15] was 48.7 ng·h/mL. The AUC(0-inf) [5, 16] was 84.7 ng·h/mL, the AUC(0-inf) [5, 17] was 59.4 ng·h/mL and the AUC(0-inf) [5, 18] was 41 ng·h/mL. It also gave an AUC(0-inf) [5, 19] of 70.3 ng·h/mL, an AUC(0-inf) [5, 20] of 50.5 ng·h/mL and an AUC(0-t) [5, 15] of 44.7 ng·h/mL. For the same compound, the AUC(0-t) [5, 16] was 82.8 ng·h/mL, the AUC(0-t) [5, 17] was 57.4 ng·h/mL and the AUC(0-t) [5, 18] was 38.2 ng·h/mL. The AUC(0-t) [5, 19] was 68.9 ng·h/mL, the AUC(0-t) [5, 20] was 49.8 ng·h/mL and the Cmax [5, 15] was 4.99 ng/mL. It also gave a Cmax [5, 16] of 12.8 ng/mL, a Cmax [5, 17] of 7.13 ng/mL and a Cmax [5, 18] of 4.5 ng/mL. It also gave a Cmax [5, 19] of 11.6 ng/mL, a Cmax [5, 20] of 6.1 ng/mL and a half-life ([5]; t1/2, mean (SD), simvastatin administered 2 hours before roxadustat, plasma) of 4.6 h. The half-life ([5]; t1/2, mean (SD), simvastatin administered 4 hours after roxadustat, plasma) was 3.75 h, the half-life ([5]; t1/2, mean (SD), simvastatin administered 10 hours after roxadustat, plasma) was 4.16 h and the half-life ([5]; t1/2, median (min-max), simvastatin administered 2 hours before roxadustat, plasma) was 4.27 h. It also gave a half-life ([5]; t1/2, median (min-max), simvastatin administered 4 hours after roxadustat, plasma) of 3.45 h, a Tmax [5, 15] of 5.55 h and a Tmax [5, 16] of 4.01 h. For the same compound, the Tmax [5, 17] was 4.4 h, the Tmax [5, 18] was 6 h and the Tmax [5, 20] was 4.01 h. For the same compound, the “AUClast, mean (SD)” value ([5]; simvastatin 40 mg alone, plasma) was 22.17 (11.98) ng • h/mL and the “tmax, median (min-max)” value ([5]; simvastatin administered 4 hours after roxadustat, plasma) was 4.00 (2.02–6.00) h.
In the case of `CCC(C)(C)C(=O)O[C@H]1C[C@@H](C)C=C2C=C[C@H](C)[C@H](CC[C@@H]3C[C@@H](O)CC(=O)O3)[C@H]21` [Simvastatin], the “TEAE headache, subjects” value [3] was 0.0%, the “TEAE nasopharyngitis, subjects” value [3] was 0.0% and the “TEAE headache, subjects” value [6, 21] was 16.7%. The “TEAE incidence: Overall” value [6, 21] was 9 (37.5%) n (%), the “total number of TEAEs” value [6, 21] was 12 and the “TEAE headache, subjects” value [6, 22] was 4.2%. For the same compound, the “TEAE incidence: Overall” value [6, 22] was 6 (25.0%) n (%), the “number of TEAEs of dizziness possibly related to the study drug” value [6, 22] was 1 and the “subjects with TEAE of dizziness possibly related to the study drug” value [6, 22] was 1 (4.2%) n (%). For the same compound, the “total number of TEAEs” value [6, 22] was 8, the “TEAE headache, subjects” value [6, 23] was 8.3% and the “TEAE incidence: Overall” value [6, 23] was 4 (16.7%) n (%). For the same compound, the “number of TEAEs of dizziness possibly related to the study drug” value [6, 23] was 2, the “subjects with TEAE of dizziness possibly related to the study drug” value [6, 23] was 1 (4.2%) n (%) and the “total number of TEAEs” value [6, 23] was 9. For the same compound, the “TEAE headache, subjects” value ([6]; simvastatin administered alone) was 8.3%, the “TEAE incidence: Overall” value ([6]; simvastatin alone) was 5 (20.8%) n (%) and the “total number of TEAEs” value ([6]; simvastatin alone) was 6. The “CL/F lower in the presence of roxadustat” value [4] was 40%, the “increase of Cmax” value [4] was 1.87 fold and the “lower mean CL/F” value ([5]; simvastatin 2 hours before roxadustat) was 42%. The “lower mean CL/F” value ([5]; simvastatin 4 hours after roxadustat) was 51% and the “lower mean CL/F” value ([5]; simvastatin 10 hours after roxadustat) was 46%.
